SMILES strings stand for the structures. Read-outs that look alike come from different tables or passages of the source.

The target in series [1] is T1, α1B Human Adrenergic Receptor (Homo sapiens, UniProt P35368).
T1 construct: The entire coding region of α1B (1563 bp); expressed in transfected cells
T1 sequence (P35368 1-520): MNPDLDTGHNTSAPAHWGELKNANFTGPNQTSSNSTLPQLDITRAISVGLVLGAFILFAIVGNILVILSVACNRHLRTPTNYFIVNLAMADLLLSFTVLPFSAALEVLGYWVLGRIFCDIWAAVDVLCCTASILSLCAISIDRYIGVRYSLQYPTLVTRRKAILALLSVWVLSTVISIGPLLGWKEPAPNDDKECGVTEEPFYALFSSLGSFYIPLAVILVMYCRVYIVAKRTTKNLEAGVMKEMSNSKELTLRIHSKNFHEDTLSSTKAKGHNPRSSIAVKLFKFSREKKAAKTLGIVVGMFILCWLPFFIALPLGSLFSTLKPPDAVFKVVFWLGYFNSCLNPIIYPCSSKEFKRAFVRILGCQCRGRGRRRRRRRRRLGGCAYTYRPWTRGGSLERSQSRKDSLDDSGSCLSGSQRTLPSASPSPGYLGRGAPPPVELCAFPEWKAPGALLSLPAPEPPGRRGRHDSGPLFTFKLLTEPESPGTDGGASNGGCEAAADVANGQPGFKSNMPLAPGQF
Description: Radioligand binding, [3H]prazosin, cloned human α1B adrenergic receptor. An outline of the steps: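 Membranes from stably transfected LM(tk−) cells, resuspended in 50 mM Tris-HCl, 1 mM MgCl2, 0.1% ascorbic acid, pH 7.5, were incubated with 0.5 nM [3H]prazosin for 20 min at 37° C. Nonspecific binding defined with 10 μM phentolamine; bound ligand separated by GF/B filtration.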

Setting [2] is: cloned human receptor in LM(tk-) cell membranes, SEM and n in lines below, read-out: pKi alpha-1 1b (converted).
Setting [3] is: pKi alpha-1 1b, cloned human receptor in LM(tk-) cell membranes, SEM and n in lines below.
The mark [4] stands for this setting: pKi alpha-1 1b, cloned human α1B receptor, LM(tk−) cell membranes.

On to `COC(=O)C1=C(C)NC(C)=C(C(=O)NCCCN2CCC(c3ccccc3)(c3ccccc3)CC2)C1c1ccncc1` (stereo not drawn) [Example 5, 1,4-Dihydro-5-methoxycarbonyl-2,6-dimethyl-3-(N-(3-(4,4-diphenylpiperidin-1-yl)propyl)carboxamido)-4-(4-pyridyl)pyridine], for which the melting point is 224 to 226 °C (dec.). The Ki in series [1] (setting [2]) is 832 nM.

For the compound `CC1=C(C(=O)NCCCN2CCC(c3ccccc3)(c3ccccc3)CC2)C(c2ccc([N+](=O)[O-])cc2)c2c([nH]c(=O)[nH]c2=O)N1` (stereo not drawn) [Example 64], the melting point was in the range of 184 to 186 °C. This compound showed a Ki in series [1] (setting [3]) of 355 nM.

In turn, `CCC1=C(C(=O)NCCCN2CCC(c3ccccc3)(c3ccccc3)CC2)C(c2cccc(OC)c2)C(C(=O)NCCCN2CCC(c3ccccc3)(c3ccccc3)CC2)=C(CC)N1` [Example 112, 2,6-Diethyl-1,4-dihydro-4-(3-methoxyphenyl)-3,5-bis(N-(3-(4,4-diphenylpiperidin-1-yl)propyl)carboxamido)-pyridine] returned a melting point of 166 to 170 °C. The same compound had a Ki in series [1] (setting [4]) of 23.4 nM.

In turn, `CNC(=O)C1=C(C)NC(C)=C(C(=O)NCCCN2CCC(O)(c3ccccc3)CC2)C1c1ccc([N+](=O)[O-])cc1` (stereo not drawn) [Example 162, 1,4-Dihydro-3-{N-[3-(4-hydroxy-4-phenylpiperidin-1-yl)propyl]}carboxamido-2,6-dimethyl-5-(N-methyl)carboxamido-4-(4-nitrophenyl)pyridine] gave a melting point of 87 to 91 °C. The Ki in series [1] (setting [4]) was 257 nM.

On to `COC(=O)C1=C(C)NC(C)=C(C(=O)NCCCN2CCC(c3ccccc3)(c3ccccc3)CC2)C1c1cc[n+]([O-])cc1` (stereo not drawn) [Example 9, 1,4-Dihydro-3-methoxycarbonyl-2,6-Dimethyl-4-(1-oxido-4-pyridyl)-5-(N-(3-(4,4-diphenylpiperidin-1-yl)propyl)carboxamido)pyridine], for which the melting point was 206 to 209 °C (dec.). The Ki in series [1] (setting [3]) was 339 nM.

As for `CCC1=C(C(N)=O)C(c2ccc(S(C)(=O)=O)cc2)C(C(=O)NCCCN2CCC(c3ccccc3)(c3ccccc3)CC2)=C(C)N1` (stereo not drawn) [Example 118, 3-Carboxamido-2-ethyl-1,4-dihydro-4-(4-methanesulfonylphenyl)-6-methyl-3-(N-(3-(4,4-diphenylpiperidin-1-yl)propyl)carboxyamido)-pyridine], the melting point was in the range of 182 to 183 °C. The Ki in series [1] (setting [4]) was 1780 nM.

`COC(=O)C1=C(C)NC(C)=C(C(=O)NCCCN2CCC(c3ccccc3)(c3ccccc3)CC2)C1c1ccc(C#N)cc1` (stereo not drawn) [Example 12, 4-(4-Cyanophenyl)-1,4-dihydro-3-methoxycarbonyl-2,6-dimethyl-5-(N-(3-(4,4-diphenylpiperidin-1-yl)propyl)carboxamido)pyridine] yielded a melting point of 115 to 118 °C. In addition, in series [1] (setting [2]), the Ki is 151 nM.

For `CCC1=C(C(=O)OCCC#N)C(c2ccc([N+](=O)[O-])cc2)C(C(=O)NCCCN2CCC(c3ccccc3)(c3ccccc3)CC2)=C(COCCN=[N+]=[N-])N1` (stereo not drawn) [Example 141], the melting point was in the range of 63 to 67 °C. In series [1] (setting [4]), this compound showed a Ki of 33.1 nM.

In turn, `COC(=O)C1=C(C)NC(C)=C(C(=O)NCCCN2CCC(c3ccccc3)(c3ccccc3)CC2)C1c1cc(OC)c(OC)c(OC)c1` (stereo not drawn) [Example 27] returned a melting point of 187 to 188 °C. Besides, the Ki in series [1] (setting [2]) was 324 nM.

As to `COC(=O)C1=C(C)NC(C)=C(C(=O)NCCCN2CCC(c3ccccc3)(c3ccccc3)CC2)C1Cc1ccccc1` (stereo not drawn) [Example 8, 4-Benzyl-1,4-dihydro-3-methoxycarbonyl-2,6-dimethyl-5-(N-(3-(4,4-diphenylpiperidin-1-yl)propyl)carboxamido)pyridine], the melting point was in the range of 175 to 177 °C. The compound also had a Ki in series [1] (setting [3]) of 186 nM.

In turn, `CCC1=C(C(N)=O)C(c2ccc([N+](=O)[O-])cc2)C(C(=O)NCCCN2CCC(c3ccccc3)(c3ccccc3)CC2)=C(C)N1` (stereo not drawn) [Example 41, 3-Carboxamido-2-ethyl-1,4-dihydro-6-methyl-4-(4-nitrophenyl)-3-{N-[3-(4,4-diphenylpiperidin-1-yl)propyl]}carboxamidopyridine] registered a melting point of 120 to 124 °C. In addition, in series [1] (setting [3]), the Ki is 295 nM.

As to `CC1=C(C(=O)NCCCN2CCC(c3ccccc3)(c3ccccc3)CC2)C(c2ccc([N+](=O)[O-])cc2)C2=C(CCCC2=O)N1` (stereo not drawn) [Example 40, 1,4,5,6,7,8-Hexahydro-2-methyl-4-(4-nitrophenyl)-5-oxo-3-{N-[3-(4,4-diphenylpiperidin-1-yl)propyl]}carboxamidoquinoline], the melting point lay within 143 to 146 °C. In series [1] (setting [3]), this compound gave a Ki of 275 nM.

The compound `CCNC(=O)C1=C(COCCN=[N+]=[N-])NC(CC)=C(C(=O)NCCCN2CCC(c3ccccc3)(c3ccccc3)CC2)C1c1ccc([N+](=O)[O-])cc1` (stereo not drawn) [Example 147, 2-((2-Azidoethyl)oxy)methyl-6-ethyl-3-(N-ethyl)carboxamido-1,4-dihydro-4-(4-nitro)phenyl-5-(N-(3-(4,4-diphenylpiperidin-1-yl-)propyl))carboxamidopyridine] yielded a melting point of 83 to 87 °C. Besides, the Ki in series [1] (setting [4]) was 257 nM.

Take `CC(C)C1=C(C(N)=O)C(c2ccc([N+](=O)[O-])cc2)C(C(=O)NCCCN2CCC(c3ccccc3)(c3ccccc3)CC2)=C(C(C)C)N1` (stereo not drawn) [Example 127]: the melting point was in the range of 76 to 80 °C. Moreover, in series [1] (cloned human α1B receptor, LM(tk−) cell membranes), the “pKi alpha-1 1b” value stood at 6.79.

Regarding `COC(=O)C1=C(C)NC(C)=C(C(=O)NCCCN2CCC(c3ccccc3)(c3ccccc3)CC2)C1c1ccoc1` (stereo not drawn) [Example 23, 4-(3-Furyl)-1,4-dihydro-3-methoxycarbonyl-2,6-dimethyl-5-(N-(3-(4,4-diphenylpiperidin-1-yl)propyl)carboxamide)pyridine], the melting point fell in the range of 225 to 226 °C. The Ki in series [1] (setting [3]) was 214 nM.

The compound `CCC1=C(C(=O)NCCCN2CCC(c3ccccc3)(c3ccccc3)CC2)C(c2cccc(OC)c2)C(C(N)=O)=C(C)N1` (stereo not drawn) [Example 113, 5-Carboxamide-2-ethyl-1,4-dihydro-4-(3-methoxyphenyl)-6-methyl-3-(N-(3-(4,4-diphenylpiperidin-1-yl)propyl)carboxamido)-pyridine] showed a melting point of 120 to 123 °C. The compound further gave a Ki in series [1] (setting [4]) of 347 nM.

For `CC1=C(C(N)=O)C(c2ccc(S(C)(=O)=O)cc2)C(C(=O)NCCCN2CCC(c3ccccc3)(c3ccccc3)CC2)=C(C)N1` (stereo not drawn) [Example 115, 5-Carboxamido-1,4-4-dihydro-4-(4-methanesufonylphenyl)-2,6-dimethyl-3-(N-(3-(4,4-diphenylpiperidin-1-yl)propyl)carboxamido)-pyridine], the melting point is 206 to 209 °C. The compound further had a Ki in series [1] (setting [4]) of 1450 nM.

For `COC(=O)C1=C(C)NC(C)=C(C(=O)NCCCN2CCC(c3ccccc3)(c3ccccc3)CC2)C1C1CCCCC1` (stereo not drawn) [Example 6], the melting point fell in the range of 171 to 174 °C. For the same compound, the Ki in series [1] (setting [2]) is 204 nM.

Compound `COC(=O)C1=C(C)NC(C)=C(C(=O)NCCCN2CCC(c3ccccc3)(c3ccccc3)CC2)C1c1ccc(-c2ccccc2)cc1` (stereo not drawn) [Example 7] registered a melting point of 136 to 139 °C. For the same compound, the Ki in series [1] (setting [2]) was 288 nM.

`CC1=C(C(N)=O)C(c2cccc([N+](=O)[O-])c2)C(C(=O)NCCCN2CCC(c3ccccc3)(c3ccccc3)CC2)=C(C)N1` (stereo not drawn) [Example 61, 5-Carboxamido-1,4-dihydro-2,6-dimethyl-4-(3-nitrophenyl)-3-{N-[3-(4,4-diphenylpiperidin-1-yl)propyl]}carboxamidopyridine] came in with a melting point of 144 to 148 °C. For the same compound, in series [1] (setting [3]), the Ki was 427 nM.

In the case of `COC(=O)C1=C(C)NC(C)=C(C(=O)NCCCN2CCC(c3ccccc3)(c3ccccc3)CC2)C1c1ccc(Br)cc1` (stereo not drawn) [Example 15, 4-(4-Bromophenyl)-1,4-dihydro-3-methoxycarbonyl-2,6-dimethyl-5-(N-(3-(4,4-diphenylpiperidin-1-yl)propyl)carboxamido)pyridine], the melting point is 244 to 247 °C (dec.). In series [1] (setting [2]), the Ki was 166 nM.

`COC(=O)C1=C(C)NC(C)=C(C(=O)NCCCN2CCC(c3ccccc3)(c3ccccc3)CC2)C1c1ccc(C(F)(F)F)cc1` (stereo not drawn) [Example 1]: the melting point is 228 to 231 °C. The Ki in series [1] (setting [2]) is 407 nM.

In turn, `COC(=O)C1=C(C)NC(C)=C(C(=O)NCCCN2CCC(c3ccccc3)(c3ccccc3)CC2)C1c1ccc(Cl)cc1` (stereo not drawn) [Example 10, 4-(4-Chlorophenyl)-1,4-dihydro-5-methoxycarbonyl-2,6-Dimethyl-5-(N-(3-(4,4-diphenylpiperidin-1-yl)propyl)carboxamido)pyridine] displayed a melting point of 240 to 242 °C. Further, the Ki in series [1] (setting [2]) was 123 nM.

In turn, `COC(=O)C1=C(C)NC(C)=C(C(=O)NCCCN2CCC(c3ccccc3)(c3ccccc3)CC2)C1c1ccc(C)cc1` (stereo not drawn) [Example 19, 1,4-Dihydro-3-methoxycarbonyl-1,6-dimethyl-4-(4-methylphenyl)-5-(N-(3-(4,4-diphenylpiperidin-1-yl)propyl)carboxamido)pyridine] returned a melting point of 234 to 235 °C. Further, the Ki in series [1] (setting [2]) was 269 nM.
